From ChEMBL document CHEMBL6092197, “Novel benzenesulfonamide-aroylhydrazone conjugates as carbonic anhydrase inhibitors that induce MAPK/ERK-mediated cell cycle arrest and mitochondrial-associated apoptosis in MCF-7 breast cancer cells” (Bioorg Med Chem, 2024)

Columns and labels:
in vitro = details: human, HaCaT cells
Description: Cytotoxicity against human HaCaT cells assessed as reduction in cell proliferation incubated for 72 hrs by MTT assay

HeLa = assay: cells; details: Homo sapiens, 72 h
Description: Antiproliferative activity against human HeLa cells assessed as reduction in cell proliferation incubated for 72 hrs by MTT assay

[1] = Selectivity index, ratio of IC50 for human HaCaT cells to IC50 for human MCF7 cells; format: toxicity; details: HaCaT cells versus MCF7 cells, read-out: Ratio IC50
HCT-116 = assay: cells; details: Homo sapiens, HCT-116, 72 h
Description: Antiproliferative activity against human HCT-116 cells assessed as reduction in cell proliferation incubated for 72 hrs by MTT assay

[2] = Selectivity index, ratio of IC50 for human HaCaT cells to IC50 for human HCT-116 cells; format: toxicity; details: HaCaT cells versus HCT-116 cells, read-out: Ratio IC50
[3] = Selectivity index, ratio of IC50 for human HaCaT cells to IC50 for human HeLa cells; format: toxicity; details: HaCaT cells versus HeLa cells, read-out: Ratio IC50
MCF7 [4] = assay: cells; details: Homo sapiens, MCF7, 72 h
Description: Antiproliferative activity against human MCF7 cells assessed as reduction in cell proliferation incubated for 72 hrs by MTT assay

MCF7 [5] = assay: Effect on apoptosis in human MCF7 cells assessed as fold decrease in apoptotic cells at 10 uM preincubated with U0126 for 1 hrs followed by compound addition and measured after 72 hrs by Annexin V-PE/7-AAD staining based flow cytometric analysis; format: functional
Carbonic anhydrase 12 = Carbonic anhydrase 12 (Homo sapiens, UniProt O43570); assay: Inhibition of human carbonic anhydrase XII assessed as inhibition constant incubated for 15 mins by stopped flow CO2-hydrase assay
Sequence of Carbonic anhydrase 12 (O43570 whole entry): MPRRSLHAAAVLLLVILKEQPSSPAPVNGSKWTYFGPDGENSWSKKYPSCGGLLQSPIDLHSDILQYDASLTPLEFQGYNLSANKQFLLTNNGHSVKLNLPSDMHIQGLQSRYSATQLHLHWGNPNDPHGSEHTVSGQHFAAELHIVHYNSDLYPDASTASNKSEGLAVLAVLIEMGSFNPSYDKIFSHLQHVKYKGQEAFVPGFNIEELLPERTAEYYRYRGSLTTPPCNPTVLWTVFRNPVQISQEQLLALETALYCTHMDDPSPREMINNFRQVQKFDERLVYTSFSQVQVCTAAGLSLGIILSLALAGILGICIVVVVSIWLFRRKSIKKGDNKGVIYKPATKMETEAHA

MCF7 [6] = assay: Induction of apoptosis in human MCF7 cells assessed as increase in caspase activity at 10 uM preincubated for 48 hrs followed by carboxyfluorescein-labeled fluoro-methyl ketone peptide addition and measured after 1 hrs by fluorescence based analysis relative to control; format: functional
Carbonic anhydrase 2 = Carbonic anhydrase 2 (Homo sapiens, UniProt P00918); assay: Inhibition of human carbonic anhydrase II assessed as inhibition constant incubated for 15 mins by stopped flow CO2-hydrase assay
Carbonic anhydrase 9 = Carbonic anhydrase 9 (Homo sapiens, UniProt Q16790); assay: Inhibition of human carbonic anhydrase IX assessed as inhibition constant incubated for 15 mins by stopped flow CO2-hydrase assay
MCF7 [7] = assay: Inhibition of colony formation in human MCF7 cells assessed as reduction in colony formation at […] preincubated with compound for 24 hrs followed by replacement with DMEM medium and measured after 2 weeks by crystal violet staining based analysis relative to control; format: functional; details: dose 2.5 µM
MCF7 [8] = assay: Antiproliferative activity against human MCF7 cells assessed as reduction in cell proliferation incubated for 48 hrs by MTT assay; format: functional, cell-based; details: MCF7, 48 h
MCF7 [9] = assay: Antiproliferative activity against human MCF7 cells assessed as reduction in cell proliferation incubated for 24 hrs by MTT assay; format: functional, cell-based; details: MCF7, 24 h
MCF7 [10] = assay: Induction of apoptosis in human MCF7 cells assessed as total apoptotic cells at 10 uM incubated for 72 hrs by Annexin V-PE/7-AAD staining based flow cytometric analysis relative to control; format: functional
Carbonic anhydrase 1 = Carbonic anhydrase 1 (Homo sapiens, UniProt P00915); assay: Inhibition of human carbonic anhydrase I assessed as inhibition constant incubated for 15 mins by stopped flow CO2-hydrase assay
Sequence of Carbonic anhydrase 1 (P00915 whole entry): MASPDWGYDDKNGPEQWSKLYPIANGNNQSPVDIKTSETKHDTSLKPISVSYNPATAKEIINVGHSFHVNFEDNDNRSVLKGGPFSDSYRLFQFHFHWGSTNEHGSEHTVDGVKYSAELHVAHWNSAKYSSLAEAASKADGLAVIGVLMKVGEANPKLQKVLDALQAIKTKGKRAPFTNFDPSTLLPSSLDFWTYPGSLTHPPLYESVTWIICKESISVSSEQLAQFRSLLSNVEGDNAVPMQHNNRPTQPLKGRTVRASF

MCF7 [11] = assay: Inhibition of colony formation in human MCF7 cells assessed as reduction in colony formation at 5 uM preincubated with compound for 24 hrs followed by replacement with DMEM medium and measured after 2 weeks by crystal violet staining based analysis relative to control; format: functional

**Q.** For NNC(=O)c1cc(S(N)(=O)=O)c(Cl)cc1SCc1ccc(F)cc1, which IC50 at 72 h (in vitro) is on record?
**A.** 65 µM

**Q.** And the IC50 (HeLa)?
**A.** 36 µM

**Q.** What about the selectivity ratio [1] of the same compound?
**A.** 2.7

**Q.** What about the IC50 (HCT-116) of the same compound?
**A.** 18 µM

**Q.** And the selectivity ratio [2]?
**A.** 3.6

**Q.** And the selectivity ratio [3]?
**A.** 1.8

**Q.** And the IC50 (MCF7 [4])?
**A.** 24 µM

**Q.** Which results are given for NS(=O)(=O)c1cc(C(=O)N/N=C/c2ccc(Br)cc2O)c(SCc2ccccc2)cc1Cl?
**A.** IC50 (HeLa): 16 µM; selectivity ratio [1]: 8.2; fold change (FC) (MCF7 [5]): 2; Ki (Carbonic anhydrase 12): 0.0822 µM; Activity (MCF7 [6]): 30%; Ki (Carbonic anhydrase 2): 0.0411 µM; Ki (Carbonic anhydrase 9): 0.0857 µM; selectivity ratio [3]: 2; inhibition at […] (MCF7 [7]): 80%; IC50 (MCF7 [8]): 6 µM; IC50 (MCF7 [9]): 98 µM; Activity (MCF7 [10]): 65%; IC50 (MCF7 [4]): 4 µM; Ki (Carbonic anhydrase 1): 0.328 µM; inhibition at 5 µM (MCF7 [11]): 85%

**Q.** Which results are given for NS(=O)(=O)c1cc(C(=O)N/N=C/c2ccc(O)cc2O)c(SCc2ccccc2)cc1Cl?
**A.** IC50 at 72 h (in vitro): 58 µM; IC50 (HeLa): 29 µM; selectivity ratio [1]: 2.6; IC50 (HCT-116): 14 µM; selectivity ratio [2]: 4.1; Ki (Carbonic anhydrase 12): 0.0568 µM; Ki (Carbonic anhydrase 2): 0.0491 µM; Ki (Carbonic anhydrase 9): 0.0581 µM; selectivity ratio [3]: 2; IC50 (MCF7 [4]): 22 µM; Ki (Carbonic anhydrase 1): 0.144 µM

**Q.** With NS(=O)(=O)c1cc(C(=O)N/N=C/c2ccc(Br)cc2O)c(SCc2ccc(F)cc2)cc1Cl as the compound, how does the IC50 at 72 h (in vitro) read?
**A.** 33 µM

**Q.** And the IC50 (HeLa)?
**A.** 18 µM

**Q.** What about the selectivity ratio [1] of the same compound?
**A.** 5.5

**Q.** And the IC50 (HCT-116)?
**A.** 6 µM

**Q.** What about the “fold change (FC)” value (MCF7 [5]) of the same compound?
**A.** 2.2

**Q.** And the selectivity ratio [2]?
**A.** 5.5

**Q.** What about the Ki (Carbonic anhydrase 12) of the same compound?
**A.** 0.695 µM

**Q.** What about the Activity (MCF7 [6]) of the same compound?
**A.** 30%

**Q.** And the Ki (Carbonic anhydrase 2)?
**A.** 0.646 µM

**Q.** And the Ki (Carbonic anhydrase 9)?
**A.** 0.852 µM

**Q.** What about the selectivity ratio [3] of the same compound?
**A.** 1.8

**Q.** And the inhibition at […] (MCF7 [7])?
**A.** 65%

**Q.** What about the IC50 (MCF7 [8]) of the same compound?
**A.** 6 µM

**Q.** What about the IC50 (MCF7 [9]) of the same compound?
**A.** 90 µM

**Q.** What about the Activity (MCF7 [10]) of the same compound?
**A.** 60%

**Q.** What about the IC50 (MCF7 [4]) of the same compound?
**A.** 6 µM

**Q.** What about the Ki (Carbonic anhydrase 1) of the same compound?
**A.** 0.537 µM

**Q.** What about the inhibition at 5 µM (MCF7 [11]) of the same compound?
**A.** 80%

**Q.** For NNC(=O)c1cc(S(N)(=O)=O)c(Cl)cc1SCc1ccccc1, which IC50 (HeLa) is on record?
**A.** 350 µM

**Q.** What about the IC50 (HCT-116) of the same compound?
**A.** 155 µM

**Q.** What about the IC50 (MCF7 [4]) of the same compound?
**A.** 105 µM

**Q.** With NS(=O)(=O)c1cc(C(=O)N/N=C/c2ccc(O)cc2O)c(SCc2ccc(F)cc2)cc1Cl as the compound, how does the IC50 at 72 h (in vitro) read?
**A.** 32 µM

**Q.** What about the IC50 (HeLa) of the same compound?
**A.** 28 µM

**Q.** What about the selectivity ratio [1] of the same compound?
**A.** 1.2

**Q.** What about the IC50 (HCT-116) of the same compound?
**A.** 11.5 µM

**Q.** And the selectivity ratio [2]?
**A.** 2.9

**Q.** And the Ki (Carbonic anhydrase 12)?
**A.** 0.0803 µM

**Q.** And the Ki (Carbonic anhydrase 2)?
**A.** 0.0561 µM

**Q.** And the Ki (Carbonic anhydrase 9)?
**A.** 0.0801 µM

**Q.** What about the selectivity ratio [3] of the same compound?
**A.** 1.1

**Q.** And the IC50 (MCF7 [4])?
**A.** 25 µM

**Q.** And the Ki (Carbonic anhydrase 1)?
**A.** 0.0807 µM
